Experimental data as given in article PMC8708875 (Pharmaceutics, 2021).
Like-named read-outs stand apart in the source and are kept apart here. Square brackets hold non-standard residues; d marks the D form. Ends that are not written are not given here. Peptide text beside a SMILES is read from it.

What was measured:
[1] = in vitro; type: in vitro ADME; details: other tissue homogenate, mouse kidney crude extract 3 µg, peptide 50 µM, 250 µL TBS (0.025 M Tris-HCl, 0.125 M NaCl), RP-HPLC C18, UV 214 nm, average of three independent determinations, read-out: % of peptide degraded, Kidney Extract (3 µg)
Protocol: (§1) Peptide hydrolyses were analyzed by reverse phase liquid chromatography (HPLC) using a C18 µBond-pak column (4.6 × 250 mm; Millipore Corp.) with a linear gradient of 5–65% acetonitrile in 0.1% TFA for 20 min at a flow rate of 1 mL/min, and absorbance monitored at a wavelength of 214 nm, as previously described. Cleaved peptide bonds were identified by mass spectrometry sequencing after isolating the cleavage fragments manually after HPLC, as previously described (data not shown). Control enzyme assays were conducted using bradykinin ([…]; 50 µM) as a standard substrate.
(IGF1) Rev: AGAGGTGTGAAGAC-
(GLUT4) Rev: CAGCTCCTATGGTGGCG-
Glyceraldehyde 3-phosphate de- TGCCAGCCTCGTCC 75 BC_085275 hydrogenase (GAPDH) Rev: CAGGCGCCCAATAC-
Figure S1. Typical experiments to evaluate the enzymatic stability of Ric4 and derivatives on kidney tissue extracts. In order to determine if the peptides investigated herein were substrates of tissue peptidases, 50 μM of each peptide was individually incubated for 20 min in the presence of increas-ing crude kidney tissue extracts (0 µg, 3 µg or 30 µg, as indicated), in a final volume of 250 μl of 0,025 M Tris-HCl, containing 0.125 M NaCl (TBS). Peptide hydrolyses were analyzed by reverse phase liquid chromatography (HPLC) using a C18 µBond-pak column (4.6 x 250 mm; Millipore Corp.) with a linear gradient of 5-65% acetonitrile in 0.1 % TFA for 20 min at a flow rate of 1 mL/min, (1 picture or pasted object on this page, not shown here)

[2] = in vitro; type: in vitro ADME, mouse; details: other tissue homogenate; mouse liver crude extract 30 µg; peptide 50 µM; 20 min; 250 µL TBS (0.025 M Tris-HCl, 0.125 M NaCl); RP-HPLC C18, UV 214 nm; average of three independent determinations; read-out: % of peptide degraded, Liver Extract (30 µg)
Protocol: as §1

[3] = molecular target: THOP1 (Rattus norvegicus, UniProt P24155); type: in vitro ADME
Protocol: as §1

[4] = tested on: Nln; type: in vitro ADME
Protocol: as §1

[5] = tested on: C57BL/6N (WT) mice; type: in vivo, mouse
Protocol: In vivo experiments were conducted with male C57BL/6N (WT) mice 12–16 weeks-old (University of São Paulo Medical School Animal Facility, SP, Brazil). Mice were maintained in individual ventilated cages (Amresco, SP, Brazil), under standardized conditions with an artificial 12 h dark–light cycle, with free access to standard chow (Nuvital Nutrientes S.A., Colombo, PR, Brazil) and drinking water ad libitum. The number of animals used was the minimum necessary to obtain statistically significant results and they were maintained and used in accordance with the guidelines of the National Council for Control of Animal Experiments (CONCEA), following international norms of animal care and maintenance. Thus, we hereby state that all experimental protocols were previously approved by University of São Paulo Ethic committee councils from Biomedical Science Institute (approval number for mice experimentation ICB/USP 22/2017).
WT mice were fasted for 12 h and blood samples were taken before and at 15, 30, 60, 90, and 120 min after the intraperitoneal (ip) injection of 2 g/kg glucose. Glycemia was measured using a glucometer (Accu-Check Performa, ROCHE, São Paulo, Brazil). Peptides were evaluated to affect glucose uptake either after ip or oral (by gavage) administration. After 20 min glucose was administrated (blood glucose levels reached 400 mg/dL), animals received ip or oral administration of either saline, insulin (0.75 IU/kg), or peptide (Ric2 or Ric4; 600 µg/kg). In addition, a group of animals received oral administration of either water or Ric2 or Ric4 (600 µg/kg). Glycemia was measured as indicated following vehicle, insulin, or peptide administration.

[6] = tested on: THOP1; assay: THOP1 (0.1 ng), homogeneous recombinant enzyme
[7] = tested on: neurolysin (Nln); assay: Nln (0.1 ng), homogeneous recombinant enzyme
[8] = tested on: differentiated C2C12 cells; assay: Glucose uptake in C2C12 myotubes; type: cell-based, mouse; details: peptides 100 µM, insulin 100 nM; 30 min, 37 °C; 3H-glucose (1 µCi/mL) or 2-NBDG (80 µM)
[9] = crude tissue extract (kidney, 3 µg); details: WT mice, up to 20 min
[10] = crude tissue extract (liver, 30 µg); details: WT mice, up to 20 min

Sequence of THOP1 (Rattus norvegicus, UniProt P24155) (P24155 whole entry): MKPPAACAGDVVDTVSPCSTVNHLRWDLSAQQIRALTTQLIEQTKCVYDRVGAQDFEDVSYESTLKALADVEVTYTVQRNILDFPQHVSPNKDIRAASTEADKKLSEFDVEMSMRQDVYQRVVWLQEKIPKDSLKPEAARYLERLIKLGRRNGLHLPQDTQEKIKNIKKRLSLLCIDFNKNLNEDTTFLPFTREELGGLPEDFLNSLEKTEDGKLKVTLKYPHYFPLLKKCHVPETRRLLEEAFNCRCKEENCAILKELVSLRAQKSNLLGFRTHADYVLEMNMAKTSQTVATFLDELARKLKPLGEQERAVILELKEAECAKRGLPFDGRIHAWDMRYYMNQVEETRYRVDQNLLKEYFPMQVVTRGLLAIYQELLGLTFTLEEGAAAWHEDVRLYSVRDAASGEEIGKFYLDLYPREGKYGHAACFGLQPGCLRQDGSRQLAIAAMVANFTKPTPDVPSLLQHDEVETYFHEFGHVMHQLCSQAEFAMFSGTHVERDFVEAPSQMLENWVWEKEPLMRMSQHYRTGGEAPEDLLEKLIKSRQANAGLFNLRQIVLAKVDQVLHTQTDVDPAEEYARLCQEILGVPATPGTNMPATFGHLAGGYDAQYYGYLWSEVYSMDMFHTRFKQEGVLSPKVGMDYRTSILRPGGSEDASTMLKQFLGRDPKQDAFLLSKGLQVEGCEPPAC

Molecule: CC(=O)N[C@@H](CC(C)C)C(=O)N[C@@H](C)C(=O)N[C@@H](CO)C(=O)N[C@H](C(=O)N[C@@H](CO)C(=O)N[C@H](C(=O)N[C@H](C(=O)N[C@H](CC(C)C)C(=O)N[C@H](C(=O)N[C@@H](CO)C(=O)N[C@@H](CCCCN)C(=O)N[C@@H](Cc1ccc(O)cc1)C(=O)N[C@@H](CCCNC(=N)N)C(N)=O)[C@@H](C)O)C(C)C)[C@@H](C)O)C(C)C [RIC4-16] (Ac-LASVSTV[dL]TSKYR-NH2)
- metabolised at 20 min [1]: 12.5%
- metabolised at 20 min [2]: 26%

Molecule: RPPGFSPFR [Bradykinin]
- % of peptide degraded, THOP1 [3]: 11.93%
- % of peptide degraded, Nln [4]: 14.51%

Molecule: Ac-LASVSTVLTSKYR-NH2 [Ric4-2, Ric4 derived peptide]
- blood glucose levels in GTT, oral administration ([5]; WT mice fasted 12 h, glucose 2 g/kg ip at time zero, peptide 600 µg/kg orally by gavage): ability to reduce blood glucose levels

Molecule: Ac-LASVSTVLTSKYR-NH2
- not cleaved [6]: 4.55 % of peptide degraded
- not cleaved [7]: 1.18 % of peptide degraded

Molecule: Ac-LASVSTV[dL]TSKYR-NH2 [Ric4-16, Ric4 derived peptide]
- oral bioavailability ([5]; mouse, in vivo, po): no oral bioavailability
- glucose uptake in differentiated C2C12 cells [8]: efficiently induced glucose uptake

Molecule: Ac-LASVSTVLTSKYR-NH2 [RIC4-2]
- metabolised at 20 min [1]: 60%
- metabolised at 20 min [2]: 70.2%

Molecule: LASVSTVLTSKYR
- cleaved bond [9]: Leu8-Thr9, first_seen
- not cleaved [6]: 2.22 % of peptide degraded
- cleaved bond [10]: Leu8-Thr9, first_seen
- not cleaved [7]: 4.69 % of peptide degraded

Molecule: LASVSTVLTSKYR [RIC4]
- metabolised at 20 min [1]: 22.6%
- metabolised at 20 min [2]: 62.4%
